The subject of assay [1] is Plasmodium falciparum. As to the kind of experiment: Antiplasmodial activity against chloroquine-resistant Plasmodium falciparum Dd2 infected in human erythrocytes incubated for 72 hrs by SYBR green staining based fluorescence assay. The assay is classed as functional, organism-based. To be noted: Dd2, 72 h.
Assay [2] deals with Plasmodium falciparum. As to the kind of experiment: Antiplasmodial activity against chloroquine-resistant Plasmodium falciparum K1 infected in human erythrocytes incubated for 72 hrs by SYBR green staining based fluorescence assay. The assay is classed as functional, organism-based. The note with it: K1, 72 h.
Assay [3] concerns Plasmodium falciparum. As to the kind of experiment: Antiplasmodial activity against Plasmodium falciparum W2. The class given is functional, organism-based.
The subject of assay [4] is Proteus mirabilis. Briefly: Antibacterial activity against Proteus mirabilis 431 incubated for 18 hrs by agar dilution method. The class given is functional.
Assay [5] deals with Enterobacter cloacae. As to the kind of experiment: Antibacterial activity against Enterobacter cloacae incubated for 18 hrs by agar dilution method. The assay is classed as functional.
Assay [6] concerns Morganella morganii. As to the kind of experiment: Antibacterial activity against Proteus morganii NCTC235 incubated for 18 hrs by agar dilution method. The assay is classed as functional.
Assay [7] relates to Citrobacter freundii. Briefly: Antibacterial activity against Citrobacter freundii incubated for 18 hrs by agar dilution method. The class given is functional.
Assay [8] relates to Staphylococcus aureus. Briefly: Antibacterial activity against Staphylococcus aureus incubated for 18 hrs by agar dilution method. The class given is functional.
The subject of assay [9] is Klebsiella aerogenes. As to the kind of experiment: Antibacterial activity against Klebsiella aerogenes incubated for 18 hrs by agar dilution method. The class given is functional.
The subject of assay [10] is Escherichia coli. As to the kind of experiment: Antibacterial activity against Escherichia coli incubated for 18 hrs by agar dilution method. The assay is classed as functional.
Assay [11] has as its system Hafnia alvei. Briefly: Antibacterial activity against Enterobacter hafniae incubated for 18 hrs by agar dilution method. The class given is functional.
Assay [12] deals with Morganella morganii. Briefly: Antibacterial activity against Proteus morganii incubated for 18 hrs by agar dilution method. The class given is functional.
In assay [13] the test system is Providencia rettgeri. Briefly: Antibacterial activity against Proteus rettgeri incubated for 18 hrs by agar dilution method. The assay is classed as functional.
For assay [14], the system named is MCF7. Briefly: Cytotoxicity against human MCF7 by microculture tetrazolium assay. The class given is functional, cell-based.
For assay [15], the system named is A549. Briefly: Growth inhibition of human A549 cells incubated for 72 hrs by MTT assay. The assay is classed as functional, cell-based. The note with it: A549, 72 h.
Assay [16] concerns MDA-MB-231. Briefly: Growth inhibition of human MDA-MBA-231 cells incubated for 72 hrs by MTT assay. To be noted: MDA-MB-231, 72 h. The assay is classed as functional, cell-based.
Assay [17] relates to HT-29. Briefly: Growth inhibition of human HT-29 cells incubated for 72 hrs by MTT assay. The class given is functional, cell-based. To be noted: HT-29, 72 h.
The subject of assay [18] is Pseudomonas aeruginosa. As to the kind of experiment: Antibacterial activity against Pseudomonas aeruginosa ATCC 91433. The assay is classed as functional.
Assay [19] concerns Escherichia coli. As to the kind of experiment: Antibacterial activity against Escherichia coli. The class given is functional.
The subject of assay [20] is Human betaherpesvirus 5. As to the kind of experiment: Antiviral activity against GFP-transfected Human cytomegalovirus AD169 infected in human HFF cells measured after 7 days by GFP fluorometry. The note with it: Human betaherpesvirus 5, AD169, HFF, 168 h. The class given is functional, cell-based.
Assay [21] relates to Plasmodium falciparum. Briefly: Antiplasmodial activity against […] Plasmodium falciparum 3D7 infected in human erythrocytes incubated for 72 hrs by SYBR green staining based fluorescence assay. To be noted: 3D7, 72 h. The class given is functional, organism-based.
For assay [22], the system named is Pseudomonas aeruginosa. Briefly: Antibacterial activity against Pseudomonas aeruginosa ATCC 27853 incubated for 24 hrs by CLSI-based macrobroth dilution method. The assay is classed as functional.
For assay [23], the system named is Staphylococcus aureus. Briefly: Antibacterial activity against Staphylococcus aureus. The class given is functional.

≈ marks a conversion by molar mass, not a printed value.

Consider `C[C@H]1[C@H](OC(=O)CCC(=O)NCCNc2ccnc3cc(Cl)ccc23)O[C@@H]2O[C@@]3(C)CC[C@H]4[C@H](C)CC[C@@H]1[C@@]24OO3`, for which the EC50 was 1 nM in assay [1] and 0.78 nM in [2].
With `COc1cc(NCCCCn2c(-c3ccc(F)cc3)c(-c3ccccc3)c(C(=O)Nc3ccccc3)c2C(C)C)c2ncccc2c1`, in [3], the IC50 amounted to 1410 nM.
Turning to `O=C(O)C1=C(CSc2cccc[n+]2[O-])CS[C@@H]2[C@H](NC(=O)[C@H](O)c3ccccc3)C(=O)N12`, the MIC in [4], in [5], in [6], in assay [7], in [8] and in assay [9] was 0.5 µg/mL (≈ 1.06 µM) throughout. Besides, the MIC in assay [10], in assay [11], in assay [12] and in assay [13] was 0.5 µg/mL (≈ 1.06 µM) throughout.
In turn, `C[C@H]1[C@@H](CCS(=O)(=O)CC[C@H]2O[C@@H]3O[C@]4(C)CC[C@H]5[C@H](C)CC[C@@H]([C@H]2C)[C@@]35OO4)O[C@@H]2O[C@]3(C)CC[C@H]4[C@H](C)CC[C@@H]1[C@@]24OO3` came in with an EC50 in assay [14] of 25 nM.
For the molecule `C[C@H]1[C@@H](OCCNC(=Nc2cc(C(F)(F)F)ccc2Cl)NCCO[C@H]2O[C@@H]3O[C@]4(C)CC[C@H]5[C@H](C)CC[C@@H]([C@H]2C)[C@@]35OO4)O[C@@H]2O[C@]3(C)CC[C@H]4[C@H](C)CC[C@@H]1[C@@]24OO3`, the EC50 was 240 nM in [15], 1420 nM in assay [16] and 1400 nM in [17].
For `CCN(CC)CCCC(C)Nc1ccnc2cc(Cl)ccc12` (stereo not given) [CHLOROQUINE], the figures for the EC50 in assay [1] and in [2] were 165 nM and 303 nM, respectively.
Molecule `NCCCCC(N)C(=O)N(CCCCCCCCCCCCO[C@@H]1[C@@H](O[C@@H]2O[C@H](CO)[C@@H](O)[C@H](N)[C@H]2O)[C@H](N)C[C@H](N)[C@H]1O[C@H]1O[C@H](CN)[C@@H](O)[C@H](O)[C@H]1N)Cc1c2ccccc2c(Cl)c2ccccc12` (stereo not given in full) yielded an MIC in assay [18] of 8 µg/mL (≈ 7.85 µM).
In the case of `N[C@@H](CCl)C(=O)N[C@@H](CCl)C(=O)OCC1=C(C(=O)O)N2C(=O)[C@@H](NC(=O)Cc3cccs3)[C@H]2SC1`, the minimum inhibitory concentration (MIC) in assay [19] turned out to be 7.05 µg/mL (≈ 12.5 µM).
`C[C@H]1[C@H](OC(=O)CCC(=O)OCCCNc2ncnc3c(C#N)c(-c4ccc(C(F)(F)F)cc4)cc(-c4ccc(C(F)(F)F)cc4)c23)O[C@@H]2O[C@]3(C)CC[C@H]4[C@H](C)CC[C@@H]1[C@@]24OO3`: in assay [20], the EC50 amounted to 100 nM. This counts as sub-micromolar.
Consider `C[C@H]1[C@H](OC(=O)CCC(=O)OCCOC(=O)CC(=O)OCCOC(=O)CCC(=O)O[C@@H]2O[C@@H]3O[C@@]4(C)CC[C@H]5[C@H](C)CC[C@@H]([C@H]2C)[C@@]35OO4)O[C@@H]2O[C@@]3(C)CC[C@H]4[C@H](C)CC[C@@H]1[C@@]24OO3`, for which, in assay [21], the EC50 was 1.4 nM. That is a single-digit nanomolar value.
On to `C[C@H]1[C@@H](OCc2cn(-c3ccnc4cc(Cl)ccc34)nn2)O[C@@H]2O[C@@]3(C)CC[C@H]4[C@H](C)CC[C@@H]1[C@@]24OO3`, for which the EC50 stood at 5.9 nM in assay [1] and 4.3 nM in assay [2].
For `C[C@H]1[C@H](OC(=O)CCC(=O)OCc2cn(-c3ccnc4cc(Cl)ccc34)nn2)O[C@@H]2O[C@@]3(C)CC[C@H]4[C@H](C)CC[C@@H]1[C@@]24OO3`, in that order: 4.2 nM and 1.8 nM.
In assay [22], `NC[C@H]1O[C@H](O[C@H]2[C@H](OCCCCCCCCCCCCN3CCN(c4cc5c(cc4F)c(=O)c(C(=O)O)cn5C4CC4)CC3)[C@@H](O[C@@H]3O[C@H](CO)[C@@H](O)[C@H](N)[C@H]3O)[C@H](N)C[C@@H]2N)[C@H](N)[C@@H](O)[C@@H]1O` showed an MIC of 4 µg/mL (≈ 4.08 µM).
Consider `COc1cc(Cc2cnc(N)nc2N)cc(OC)c1OCCN1CCN(c2cc3c(cc2F)c(=O)c(C(=O)O)cn3C2CC2)CC1`, for which the figures for the minimal inhibitory concentration (MIC) in [23] and in assay [19] were 0.5 µg/mL (≈ 0.789 µM) and 1 µg/mL (≈ 1.58 µM), respectively.

The values above are taken from ChEMBL document CHEMBL4699468, “Structural hybridization as a facile approach to new drug candidates” (Bioorg Med Chem Lett, 2020).
